Structures are written as SMILES. Where “and” joins values, the source holds several entries; their conditions need not be identical. Identical values can stand only once.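 Step 1: Grow cells in 96-well plates. Step 2: Expose to compound for 48 hours at 5 concentrations. Step 3: Interpolate endpoints linearly; if unreached, use highest concentration. GI50 = concentration required for 50% inhibition of growth. TGI: total growth inhibition.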

Among the test systems are CAKI-1 renal; COLO 205 colon; K-562 leukemia; NCI-H522 lung; SF-268 CNS; SF-295 CNS; SF-539 CNS; SK-MEL-2 melanoma; SK-MEL-28 melanoma; SK-MEL-5 melanoma.
What all share (assay): growth of human tumour cells (NCI), 48 h

With `O=[N+]([O-])c1cccc(-c2nc3sccn3c2-c2ccnc(NCCCNS(=O)(=O)c3cccc(F)c3)n2)c1`, the GI50 with CAKI-1 renal is 2330 nM; in the assay on COLO 205 colon, 2460 nM; with K-562 leukemia, 1730 nM; in the assay on NCI-H522 lung, 2020 nM; with SF-268 CNS it was 3210 nM; in the assay with SF-295 CNS it was 2520 nM. Also, the GI50 in the assay on SF-539 CNS is 4040 nM; in the assay on SK-MEL-2 melanoma it was 2040 nM; in the assay on SK-MEL-28 melanoma, 2630 nM; in the assay on SK-MEL-5 melanoma, 824 nM. Moreover, the TGI with CAKI-1 renal is 14100 nM; in the assay on COLO 205 colon, 8110 nM; with K-562 leukemia, greater than 100000 nM; in the assay on NCI-H522 lung it was 7970 nM; in the assay with SF-268 CNS, 21900 nM; in the assay on SF-295 CNS, 7790 nM. The TGI in the assay with SF-539 CNS worked out at 20800 nM; in the assay on SK-MEL-2 melanoma, 5980 nM; in the assay with SK-MEL-28 melanoma, 7760 nM; with SK-MEL-5 melanoma, 2100 nM.
On to `CN(C)CCCN1c2ccccc2CCc2ccc(Cl)cc21`, for which the GI50 in the assay on CAKI-1 renal is 3880 nM; in the assay on COLO 205 colon, 1910 nM; in the assay on NCI-H522 lung, 5150 nM; in the assay with SF-268 CNS, 4920 nM; in the assay with SF-295 CNS, 3510 nM; in the assay with SF-539 CNS, 5590 nM. In addition, the values for the GI50 with SK-MEL-2 melanoma, in the assay on SK-MEL-28 melanoma and with SK-MEL-5 melanoma were 3010 nM, 1610 nM and 1540 nM, respectively. Moreover, the TGI with CAKI-1 renal was determined as 16800 nM; in the assay on COLO 205 colon, 3530 nM; with NCI-H522 lung, 18100 nM; in the assay on SF-268 CNS it was 18200 nM; in the assay on SF-295 CNS it was 14800 nM; in the assay with SF-539 CNS, 17700 nM. The TGI stood at 7510 nM in the assay on SK-MEL-2 melanoma, 3070 nM in the assay with SK-MEL-28 melanoma and 2900 nM in the assay with SK-MEL-5 melanoma.
With `O=C1C(=O)N(c2ccc(Cl)c(Cl)c2)C(=O)C(=O)C1c1nc2ccccc2s1`, the TGI in the assay on CAKI-1 renal, in the assay on COLO 205 colon, in the assay with NCI-H522 lung, in the assay with SF-268 CNS, with SF-295 CNS and in the assay on SF-539 CNS was greater than 100000 nM in each case. For the same compound, the TGI in the assay with SK-MEL-2 melanoma, in the assay on SK-MEL-28 melanoma and with SK-MEL-5 melanoma was greater than 100000 nM throughout.
Turning to `CC(=O)OC1CCn2nnc(CO[Si](C)(C)C(C)(C)C)c21` (stereo not drawn), the TGI with CAKI-1 renal, with COLO 205 colon, in the assay on K-562 leukemia, in the assay with NCI-H522 lung, in the assay with SF-295 CNS and in the assay with SF-539 CNS was greater than 100000 nM throughout. Also, the TGI in the assay on SK-MEL-2 melanoma, with SK-MEL-28 melanoma and with SK-MEL-5 melanoma was greater than 100000 nM in each case.
As for `CCN(C(=O)N1CCN(c2cc3c(cc2F)c(=O)c(C(=O)O)cn3C2CC2)CC1)c1nc(-c2ccc(C)cc2)cs1`, the GI50 in the assay on CAKI-1 renal was 1400 nM; in the assay with K-562 leukemia, 431 nM; with NCI-H522 lung it was 1020 nM; in the assay with SF-268 CNS it was 1060 nM; in the assay with SF-295 CNS it was 306 nM; with SF-539 CNS, 356 nM. For the same compound, the figures for the GI50 in the assay with SK-MEL-2 melanoma, with SK-MEL-28 melanoma and in the assay on SK-MEL-5 melanoma were 2500 nM, 687 nM and 858 nM, respectively. The TGI in the assay with CAKI-1 renal was greater than 100000 nM; in the assay with K-562 leukemia, greater than 100000 nM; in the assay on SF-268 CNS it was greater than 100000 nM; with SF-295 CNS, 3760 nM; in the assay with SF-539 CNS, 2650 nM; with SK-MEL-2 melanoma, 7380 nM. The TGI in the assay with SK-MEL-28 melanoma and with SK-MEL-5 melanoma was greater than 100000 nM throughout.
Regarding `C=C1CC[C@@H]2[C@](C)(COC(C)=O)[C@@H](O)CC[C@@]2(C)[C@@H]1COc1ccc2ccc(=O)oc2c1`, the GI50 in the assay on CAKI-1 renal was greater than 100000 nM; with K-562 leukemia it was 62600 nM; with NCI-H522 lung, greater than 100000 nM; with SF-268 CNS it was greater than 100000 nM; in the assay with SF-295 CNS it was 25900 nM; in the assay with SF-539 CNS, 53300 nM. Also, the GI50 in the assay with SK-MEL-2 melanoma, in the assay on SK-MEL-28 melanoma and with SK-MEL-5 melanoma was greater than 100000 nM throughout. For the same compound, the TGI with CAKI-1 renal is greater than 100000 nM; in the assay on K-562 leukemia, greater than 100000 nM; in the assay on NCI-H522 lung it was greater than 100000 nM; in the assay on SF-268 CNS, greater than 100000 nM; with SF-295 CNS, 79100 nM; in the assay on SF-539 CNS, greater than 100000 nM. Moreover, the TGI in the assay with SK-MEL-2 melanoma, in the assay with SK-MEL-28 melanoma and in the assay on SK-MEL-5 melanoma was greater than 100000 nM in each case.
For the compound `Cc1ccc(C(=O)Nc2ccc(CN3CCN(C)CC3)c(C(F)(F)F)c2)cc1C#Cc1cnc2cccnn12`, the GI50 with CAKI-1 renal is 274 nM and 388 nM; in the assay with COLO 205 colon, 328 nM and 879 nM; in the assay on NCI-H522 lung it was 319 nM and 538 nM; in the assay with SF-268 CNS, 474 nM and 730 nM; in the assay with SF-295 CNS, 327 nM and 1260 nM; in the assay on SF-539 CNS, 255 nM and 669 nM. Also, the GI50 in the assay with SK-MEL-2 melanoma was 217 nM and 492 nM; in the assay with SK-MEL-28 melanoma, 367 nM and 742 nM; in the assay with SK-MEL-5 melanoma, 790 nM and 2740 nM. Also, the TGI in the assay on CAKI-1 renal is 1090 nM and 1820 nM; in the assay on COLO 205 colon it was 1240 nM and 3010 nM; with NCI-H522 lung, 1280 nM and 3260 nM; with SF-268 CNS, 2060 nM and 4270 nM; in the assay with SF-295 CNS it was 1750 nM and 4270 nM; with SF-539 CNS, 722 nM and 2180 nM. Moreover, the TGI was 579 nM and 1430 nM with SK-MEL-2 melanoma; 1510 nM and 3700 nM in the assay with SK-MEL-28 melanoma; 2040 nM and 4660 nM in the assay with SK-MEL-5 melanoma.
`Cn1c2c(cc(S(=O)(=O)c3ccccc3)c1=O)CCc1c-2cnn1-c1ccc(Cl)cc1`: the GI50 in the assay on CAKI-1 renal is 4360 nM; in the assay with COLO 205 colon it was greater than 100000 nM; in the assay on K-562 leukemia it was greater than 100000 nM; in the assay with NCI-H522 lung it was 1780 nM; in the assay with SF-268 CNS it was 2240 nM; in the assay with SF-295 CNS it was 2090 nM. Besides, the GI50 with SF-539 CNS was 1870 nM; in the assay on SK-MEL-2 melanoma, 2560 nM; in the assay on SK-MEL-28 melanoma, 3240 nM. Also, the TGI in the assay on CAKI-1 renal is greater than 100000 nM; in the assay with COLO 205 colon, greater than 100000 nM; in the assay with K-562 leukemia, greater than 100000 nM; with NCI-H522 lung, 4120 nM; with SF-268 CNS it was 5120 nM; in the assay with SF-295 CNS, 5040 nM. The TGI with SF-539 CNS was 3400 nM; in the assay on SK-MEL-2 melanoma, 5900 nM; in the assay with SK-MEL-28 melanoma it was 13400 nM.
As to `CC(C)CC(CC1=CCC2CC1C2(C)C)C1=C(O)C(C)(C)C(=O)C(C)(C)C1=O` (stereo not drawn), the GI50 is 332 nM in the assay with CAKI-1 renal; 334 nM in the assay with K-562 leukemia; 271 nM in the assay on NCI-H522 lung; 354 nM with SF-268 CNS; 285 nM in the assay with SF-295 CNS; 357 nM with SF-539 CNS. In addition, the GI50 was 286 nM in the assay on SK-MEL-2 melanoma and 206 nM in the assay on SK-MEL-5 melanoma. Also, the TGI in the assay on CAKI-1 renal is 2290 nM; in the assay with K-562 leukemia, greater than 100000 nM; in the assay on NCI-H522 lung, 992 nM; with SF-268 CNS, greater than 100000 nM; in the assay with SF-295 CNS, 942 nM; in the assay with SF-539 CNS it was greater than 100000 nM. The figures for the TGI with SK-MEL-2 melanoma and in the assay with SK-MEL-5 melanoma were 722 nM and 468 nM, respectively.

The record behind these values is PubChem BioAssay (NCI).
